{"source": "patent US12150926B2", "about": "(SICHUAN JIUZHANG BIOLOGICAL SCIENCE AND TECHNOLOGY CO., LTD., priority 2018, dated 2024)", "key": {"[1]": {"tested_on": "transplanted tumor in S180 sarcoma-bearing KM mice", "experiment": "In vivo inhibitory effect of chlorogenic acid on S180 sarcoma transplantation in KM mice (Experimental example 1)", "parameters": "species or system mouse; key to growth volume of transplanted tumor: V = 0.52 × L × W² (long × shortest diameter²), in cm³", "settings": "for growth volume of transplanted tumor: x ± s, n = 10; for inhibitory effect on the growth volume of transplanted tumors (in words): at different time points, compared with negative control group, chlorogenic acid systemic, local and systemic+local groups 30 mg/kg, ADM 2 mg/kg; for Tumor inhibiton rate: from tumor weight vs negative group; for Tumor weight: at termination", "protocol": "(§1) KM mice, half male and half female, weighing 17-24 g.\nS180 cell lines were mouse sarcoma cells, and suspendedly grew in DH medium, containing 20% calf serum, 1 mmol/L glutamine, 100 U·ml^−1 penicillin, and 100 μg·ml^−1 streptomycin, then cultured in 37° C. 5% CO2, saturated humidity incubator. The medium was changed every 2-3 days for passage.\nS180 cells in the logarithmic growth phase were harvested, centrifuged at 1000 rpm for 5 min, washed twice, and the number of viable cells was counted by trypan blue staining. The cells were inoculated into the abdominal cavity of KM mice as soon as possible, and these mice were used as breeding mice. 2) In vivo experiment The ascites was extracted from 7 to 10 days, and the number of cells was adjusted to (about 1×10^6 cells) after dilution. The cell suspension in ascites was inoculated subcutaneously in the axillary of the left forelimb of the mice at 0.2 ml/animal.\n(§2) Negative group: intraperitoneally injected, once a day, receiving an equal volume of normal saline. On the 5th day after inoculation, the tumor volume was measured (V=0.52×L (the long diameter of the transplanted tumor)×W^2 (the shortest diameter of the transplanted tumor)), and the mice were weighed every three days. The experiment was terminated when the average tumor size in the negative group was more than 1 g (the tumor volume was about […]). The mice were sacrificed by cervical vertebra luxation and weighed, the tumor was removed, and the tumor inhibitory rate was calculated. Tumor inhibitory rate %=[1−(average tumor weight in drug group/average tumor weight in negative group)]×100%."}, "[2]": {"tested_on": "transplanted tumor in S180 sarcoma-bearing KM mice", "experiment": "In vivo inhibitory effect of chlorogenic acid composition on S180 sarcoma transplantation in KM mice (Experimental example 2)", "parameters": "species or system mouse; key to growth volume of transplanted tumor: tumor volume V=0.52×L×W² (long × shortest diameter²)", "settings": "for inhibitory effect on the growth volume of transplanted tumors (in words): at different time points, compared with negative control group, i.p. once a day, 30 mg/kg (ADM 2 mg/kg); for Tumor weight / Tumor inhibition rate / growth volume of transplanted tumor: intraperitoneally, once a day; for Tumor weight: at termination; for Tumor inhibition rate: from tumor weight vs negative group; for growth volume of transplanted tumor: x ± s, n = 10", "protocol": "S180 sarcoma transplantation in KM mice\nas §1\nS180 cell lines were mouse sarcoma cells, and suspendedly grew in DH medium, containing 20% calf serum, 1 mmol/L glutamine, 100 U·ml^−1 penicillin, and 100 μg·ml^−1 streptomycin, then cultured in 37° C., 5% CO2, saturated humidity incubator. The medium was changed every 2-3 days for passage.\nS180 cells in the logarithmic growth phase were harvested, centrifuged at 1000 rpm for 5 min, washed twice, and the number of viable cells was counted by trypan blue staining. The cells were inoculated into the abdominal cavity of KM mice as soon as possible, and these mice were used as breeding mice.\nThe ascites was extracted from 7 to 10 days, and the number of cells was adjusted to (about 1×10^6 cells) after dilution. The cell suspension in ascites was inoculated subcutaneously in the axillary of the left forelimb of the mice at 0.2 ml/animal. […] Coumaroylquinic acid group: intraperitoneally injected, once a day, at a dose of 30 mg·kg^−1.\nNegative group: intraperitoneally injected, once a day, receiving an equal volume of normal saline.\nas §2, with “On” for “Negative group: intraperitoneally injected, once a day, receiving an equal volume of normal saline. On”"}, "[3]": {"settings": "systemic + local administration: i.v. once a day 30 mg/kg plus s.c. peri-lesion once every 5 days 30 mg/kg"}, "[4]": {"settings": "time after inoculation 74, 30 mg/kg"}, "[5]": {"settings": "time after inoculation 134 [sic], 30 mg/kg"}, "[6]": {"settings": "time after inoculation printed 94, 30 mg/kg"}, "[7]": {"settings": "time after inoculation printed 114, 30 mg/kg"}}}
{"molecule": "COc1cccc2c1C(=O)c1c(O)c3c(c(O)c1C2=O)C[C@@](O)(C(=O)CO)C[C@@H]3O[C@H]1C[C@H](N)[C@H](O)[C@H](C)O1", "note": "[ADM, adriamycin, reference compound]", "values": [{"measurement": "growth volume of transplanted tumor", "setting": "[1]; 5 d after inoculation, intraperitoneally, once a day, 2 mg/kg", "result": "0.096 ± 0.041"}, {"measurement": "growth volume of transplanted tumor", "setting": "[1]; 9 d after inoculation, intraperitoneally, once a day, 2 mg/kg", "result": "0.199 ± 0.080"}, {"measurement": "growth volume of transplanted tumor", "setting": "[1]; 11 d after inoculation, intraperitoneally, once a day, 2 mg/kg", "result": "0.333 ± 0.159"}, {"measurement": "growth volume of transplanted tumor", "setting": "[1]; 13 d after inoculation, intraperitoneally, once a day, 2 mg/kg", "result": "0.478 ± 0.241"}, {"measurement": "inhibitory effect on the growth volume of transplanted tumors (in words)", "setting": "[1]", "result": "significant inhibitory effect"}, {"measurement": "Tumor inhibiton rate", "setting": "[1]; intraperitoneally, once a day, 2 mg/kg, listed as Adriamycin (ADM), 2 mg/kg", "result": 56.95, "unit": "%"}, {"measurement": "inhibitory effect on the growth volume of transplanted tumors (in words)", "setting": "[2]", "result": "significant inhibitory effect"}, {"measurement": "Tumor weight", "setting": "[2]; 2 mg/kg", "result": "1.132 ± 0.552", "unit": "g"}, {"measurement": "Tumor inhibition rate", "setting": "[2]; 2 mg/kg, listed as Adriamycin (ADM), 2 mg/kg", "result": 53.38, "unit": "%"}, {"measurement": "growth volume of transplanted tumor", "setting": "[2]; time after inoculation 74, 2 mg/kg", "result": "0.171 ± 0.082"}, {"measurement": "growth volume of transplanted tumor", "setting": "[2]; time after inoculation 134 [sic], 2 mg/kg", "result": "0.492 ± 0.204"}, {"measurement": "growth volume of transplanted tumor", "setting": "[2]; time after inoculation printed 54, 2 mg/kg", "result": "0.116 ± 0.073"}, {"measurement": "growth volume of transplanted tumor", "setting": "[2]; time after inoculation printed 114, 2 mg/kg", "result": "0.363 ± 0.128"}]}
{"molecule": "O=C(/C=C/c1ccc(O)c(O)c1)O[C@@H]1C[C@](O)(C(=O)O)C[C@@H](O)[C@H]1O", "note": "[Chlorogenic acid]", "values": [{"measurement": "growth volume of transplanted tumor", "setting": "[1]; 5 d after inoculation, local administration: subcutaneously into periphery of in situ lesion, once a day, 30 mg/kg", "result": "0.152 ± 0.028"}, {"measurement": "growth volume of transplanted tumor", "setting": "[1]; 5 d after inoculation, systemic administration: intravenously, once a day, 30 mg/kg", "result": "0.141 ± 0.032"}, {"measurement": "growth volume of transplanted tumor", "setting": "[1]; 7 d after inoculation, local administration: subcutaneously into periphery of in situ lesion, once a day, 30 mg/kg", "result": "0.221 ± 0.047"}, {"measurement": "growth volume of transplanted tumor", "setting": "[1]; 7 d after inoculation, systemic + local administration: i.v. once a day 30 mg/kg plus s.c. peri-lesion once every 5 days 30 mg/kg", "result": "0.186 ± 0.065"}, {"measurement": "growth volume of transplanted tumor", "setting": "[1]; 7 d after inoculation, systemic administration: intravenously, once a day, 30 mg/kg", "result": "0.205 ± 0.061"}, {"measurement": "growth volume of transplanted tumor", "setting": "[1]; 9 d after inoculation, local administration: subcutaneously into periphery of in situ lesion, once a day, 30 mg/kg", "result": "0.311 ± 0.064"}, {"measurement": "growth volume of transplanted tumor", "setting": "[1]; 9 d after inoculation, systemic + local administration: i.v. once a day 30 mg/kg plus s.c. peri-lesion once every 5 days 30 mg/kg", "result": "0.243 ± 0.066"}, {"measurement": "growth volume of transplanted tumor", "setting": "[1]; 9 d after inoculation, systemic administration: intravenously, once a day, 30 mg/kg", "result": "0.289 ± 0.082"}, {"measurement": "growth volume of transplanted tumor", "setting": "[1]; 11 d after inoculation, local administration: subcutaneously into periphery of in situ lesion, once a day, 30 mg/kg", "result": "0.535 ± 0.078"}, {"measurement": "growth volume of transplanted tumor", "setting": "[1]; 11 d after inoculation, systemic + local administration: i.v. once a day 30 mg/kg plus s.c. peri-lesion once every 5 days 30 mg/kg", "result": "0.344 ± 0.127"}, {"measurement": "growth volume of transplanted tumor", "setting": "[1]; 11 d after inoculation, systemic administration: intravenously, once a day, 30 mg/kg", "result": "0.504 ± 0.158"}, {"measurement": "growth volume of transplanted tumor", "setting": "[1]; 13 d after inoculation, local administration: subcutaneously into periphery of in situ lesion, once a day, 30 mg/kg", "result": "0.651 ± 0.154"}, {"measurement": "growth volume of transplanted tumor", "setting": "[1]; 13 d after inoculation, systemic + local administration: i.v. once a day 30 mg/kg plus s.c. peri-lesion once every 5 days 30 mg/kg", "result": "0.446 ± 0.157"}, {"measurement": "growth volume of transplanted tumor", "setting": "[1]; 13 d after inoculation, systemic administration: intravenously, once a day, 30 mg/kg", "result": "0.593 ± 0.213"}, {"measurement": "inhibitory effect on the growth volume of transplanted tumors (in words)", "setting": "[1]", "result": "significant inhibitory effect"}, {"measurement": "Tumor weight", "setting": "[1]; local administration: s.c. peri-lesion, once a day, 30 mg/kg", "result": "1.324 ± 0.239", "unit": "g"}, {"measurement": "Tumor inhibiton rate", "setting": "[1]; local administration: s.c. peri-lesion, once a day, 30 mg/kg, 30 mg/kg", "result": 41.36, "unit": "%"}, {"measurement": "Tumor weight", "setting": "[1]; [3]", "result": "0.957 ± 0.308", "unit": "g"}, {"measurement": "Tumor inhibiton rate", "setting": "[1]; [3]", "result": 57.62, "unit": "%"}, {"measurement": "Tumor weight", "setting": "[1]; systemic administration: intravenously, once a day, 30 mg/kg", "result": "1.183 ± 0.215", "unit": "g"}, {"measurement": "Tumor inhibiton rate", "setting": "[1]; systemic administration: intravenously, once a day, 30 mg/kg, 30 mg/kg", "result": 47.61, "unit": "%"}, {"measurement": "inhibitory effect on the growth volume compared with the systemic administration group and the local administration group (in words)", "setting": "[1]; systemic+local administration group", "result": "better inhibitory effect"}, {"measurement": "inhibitory effect on the growth volume of transplanted tumors (in words)", "setting": "[2]", "result": "significant inhibitory effect"}, {"measurement": "Tumor inhibition rate", "setting": "[2]; 30 mg/kg, 30 mg/kg", "result": 48.64, "unit": "%"}, {"measurement": "growth volume of transplanted tumor", "setting": "[2]; [4]", "result": "0.242 ± 0.053"}, {"measurement": "growth volume of transplanted tumor", "setting": "[2]; [5]", "result": "0.811 ± 0.142"}, {"measurement": "growth volume of transplanted tumor", "setting": "[2]; [6]", "result": "0.326 ± 0.071"}, {"measurement": "growth volume of transplanted tumor", "setting": "[2]; [7]", "result": "0.453 ± 0.093"}]}
{"molecule": "coumaroylquinic acid", "values": [{"measurement": "inhibitory effect on the growth volume of transplanted tumors (in words)", "setting": "[2]", "result": "didn't show inhibitory effect"}, {"measurement": "Tumor weight", "setting": "[2]; 30 mg/kg", "result": "2.303 ± 0.475", "unit": "g"}, {"measurement": "Tumor inhibition rate", "setting": "[2]; 30 mg/kg, 30 mg/kg", "result": 5.15, "unit": "%"}, {"measurement": "Tumor inhibition rate", "setting": "[2]; 30 mg/kg, listed as coumaroylquinic acid, 30 mg/kg", "result": 5, "unit": "%"}, {"measurement": "growth volume of transplanted tumor", "setting": "[2]; [4]", "result": "0.364 ± 0.074"}, {"measurement": "growth volume of transplanted tumor", "setting": "[2]; [5]", "result": "1.106 ± 0.137"}, {"measurement": "growth volume of transplanted tumor", "setting": "[2]; time after inoculation printed 54, 30 mg/kg", "result": "0.209 ± 0.058"}, {"measurement": "growth volume of transplanted tumor", "setting": "[2]; [6]", "result": "0.573 ± 0.093"}, {"measurement": "growth volume of transplanted tumor", "setting": "[2]; [7]", "result": "0.898 ± 0.075"}]}
